What was measured:
[1] = target: Vascular endothelial growth factor receptor 3 (Homo sapiens) (UniProt P35916); assay: Inhibition of FLT4 assessed as enzyme activity at 1 uM relative to untreated control; set-up: scale not given: the % may be the effect or the level left
[2] = target: Serine/threonine-protein kinase 32B (Homo sapiens) (UniProt Q9NY57); assay: Inhibition of YANK2 assessed as enzyme activity at 1 uM relative to untreated control; set-up: scale not given: the % may be the effect or the level left
Serine/threonine-protein kinase 32B (Homo sapiens), sequence (Q9NY57 whole entry, the tested form may be a part): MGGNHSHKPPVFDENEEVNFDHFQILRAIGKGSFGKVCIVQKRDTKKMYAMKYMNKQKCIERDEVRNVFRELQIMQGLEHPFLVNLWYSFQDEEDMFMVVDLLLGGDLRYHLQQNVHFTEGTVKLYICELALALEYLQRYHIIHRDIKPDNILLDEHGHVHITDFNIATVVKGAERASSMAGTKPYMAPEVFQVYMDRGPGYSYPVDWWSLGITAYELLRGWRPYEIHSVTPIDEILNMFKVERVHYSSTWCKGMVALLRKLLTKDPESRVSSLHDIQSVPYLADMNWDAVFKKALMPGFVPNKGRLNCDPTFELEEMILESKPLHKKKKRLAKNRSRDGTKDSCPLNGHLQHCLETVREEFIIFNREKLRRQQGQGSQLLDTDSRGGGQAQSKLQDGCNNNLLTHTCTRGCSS

[3] = target: Epithelial discoidin domain-containing receptor 1 (Homo sapiens) (UniProt Q08345); assay: Inhibition of DDR1 dyscoidin domain assessed as enzyme activity at 1 uM relative to untreated control; set-up: scale not given: the % may be the effect or the level left
[4] = target: Serine/threonine-protein kinase PAK 2 (Homo sapiens) (UniProt Q13177); assay: Inhibition of PAK2 assessed as enzyme activity at 1 uM relative to untreated control; set-up: scale not given: the % may be the effect or the level left
[5] = target: Tyrosine-protein kinase ITK/TSK (Homo sapiens) (UniProt Q08881); assay: Inhibition of ITK assessed as enzyme activity at 1 uM relative to untreated control; set-up: scale not given: the % may be the effect or the level left
[6] = target: Mitogen-activated protein kinase kinase kinase 20 (Homo sapiens) (UniProt Q9NYL2); assay: Inhibition of ZAK assessed as enzyme activity at 1 uM relative to untreated control; set-up: scale not given: the % may be the effect or the level left
[7] = target: Serine/threonine-protein kinase PAK 6 (Homo sapiens) (UniProt Q9NQU5); assay: Inhibition of PAK6 assessed as enzyme activity at 1 uM relative to untreated control; set-up: scale not given: the % may be the effect or the level left
[8] = target: TGF-beta receptor type-2 (Homo sapiens) (UniProt P37173); assay: Inhibition of TGFBR2 assessed as enzyme activity at 1 uM relative to untreated control; set-up: scale not given: the % may be the effect or the level left
[9] = target: Tyrosine-protein kinase receptor UFO (Homo sapiens) (UniProt P30530); assay: Inhibition of AXL assessed as enzyme activity at 1 uM relative to untreated control; set-up: scale not given: the % may be the effect or the level left
[10] = target: Myosin light chain kinase family member 4 (Homo sapiens) (UniProt Q86YV6); assay: Inhibition of SgK085 assessed as enzyme activity at 1 uM relative to untreated control; set-up: scale not given: the % may be the effect or the level left
[11] = target: Vascular endothelial growth factor receptor 2 (Homo sapiens, UniProt P35968); assay: Inhibition of KDR
[12] = target: Phosphatidylinositol 4,5-bisphosphate 3-kinase catalytic subunit gamma isoform (Homo sapiens) (UniProt P48736); assay: Inhibition of PIK3CG assessed as enzyme activity at 1 uM relative to untreated control; set-up: scale not given: the % may be the effect or the level left
[13] = target: Ephrin type-B receptor 2 (Homo sapiens) (UniProt P29323); assay: Inhibition of EPHB2 assessed as enzyme activity at 1 uM relative to untreated control; set-up: scale not given: the % may be the effect or the level left
[14] = target: Death-associated protein kinase 2 (Homo sapiens) (UniProt Q9UIK4); assay: Inhibition of DAPK2 assessed as enzyme activity at 1 uM relative to untreated control; set-up: scale not given: the % may be the effect or the level left
[15] = target: Uncharacterized serine/threonine-protein kinase SBK3 (Homo sapiens) (UniProt P0C264); assay: Inhibition of SgK110 assessed as enzyme activity at 1 uM relative to untreated control; set-up: scale not given: the % may be the effect or the level left
A-375 = assay: Antitumor activity against human A375 SQ2 cells xenografted in po dosed CD1 mouse assessed as inhibition of tumor growth administered once daily for 14 days; type: functional; settings: 336 h
[16] = target: Cyclin-dependent kinase 11A (Homo sapiens) (UniProt Q9UQ88); assay: Inhibition of CDC2L2 assessed as enzyme activity at 1 uM relative to untreated control; set-up: scale not given: the % may be the effect or the level left
[17] = target: Serine/threonine-protein kinase MRCK alpha (Homo sapiens) (UniProt Q5VT25); assay: Inhibition of MRCKA assessed as enzyme activity at 1 uM relative to untreated control; set-up: scale not given: the % may be the effect or the level left
[18] = target: Dual specificity protein kinase CLK2 (Homo sapiens) (UniProt P49760); assay: Inhibition of CLK2 assessed as enzyme activity at 1 uM relative to untreated control; set-up: scale not given: the % may be the effect or the level left
[19] = target: Proto-oncogene tyrosine-protein kinase ROS (Homo sapiens) (UniProt P08922); assay: Inhibition of ROS1 assessed as enzyme activity at 1 uM relative to untreated control; set-up: scale not given: the % may be the effect or the level left
Proto-oncogene tyrosine-protein kinase ROS (Homo sapiens), sequence (P08922 whole entry): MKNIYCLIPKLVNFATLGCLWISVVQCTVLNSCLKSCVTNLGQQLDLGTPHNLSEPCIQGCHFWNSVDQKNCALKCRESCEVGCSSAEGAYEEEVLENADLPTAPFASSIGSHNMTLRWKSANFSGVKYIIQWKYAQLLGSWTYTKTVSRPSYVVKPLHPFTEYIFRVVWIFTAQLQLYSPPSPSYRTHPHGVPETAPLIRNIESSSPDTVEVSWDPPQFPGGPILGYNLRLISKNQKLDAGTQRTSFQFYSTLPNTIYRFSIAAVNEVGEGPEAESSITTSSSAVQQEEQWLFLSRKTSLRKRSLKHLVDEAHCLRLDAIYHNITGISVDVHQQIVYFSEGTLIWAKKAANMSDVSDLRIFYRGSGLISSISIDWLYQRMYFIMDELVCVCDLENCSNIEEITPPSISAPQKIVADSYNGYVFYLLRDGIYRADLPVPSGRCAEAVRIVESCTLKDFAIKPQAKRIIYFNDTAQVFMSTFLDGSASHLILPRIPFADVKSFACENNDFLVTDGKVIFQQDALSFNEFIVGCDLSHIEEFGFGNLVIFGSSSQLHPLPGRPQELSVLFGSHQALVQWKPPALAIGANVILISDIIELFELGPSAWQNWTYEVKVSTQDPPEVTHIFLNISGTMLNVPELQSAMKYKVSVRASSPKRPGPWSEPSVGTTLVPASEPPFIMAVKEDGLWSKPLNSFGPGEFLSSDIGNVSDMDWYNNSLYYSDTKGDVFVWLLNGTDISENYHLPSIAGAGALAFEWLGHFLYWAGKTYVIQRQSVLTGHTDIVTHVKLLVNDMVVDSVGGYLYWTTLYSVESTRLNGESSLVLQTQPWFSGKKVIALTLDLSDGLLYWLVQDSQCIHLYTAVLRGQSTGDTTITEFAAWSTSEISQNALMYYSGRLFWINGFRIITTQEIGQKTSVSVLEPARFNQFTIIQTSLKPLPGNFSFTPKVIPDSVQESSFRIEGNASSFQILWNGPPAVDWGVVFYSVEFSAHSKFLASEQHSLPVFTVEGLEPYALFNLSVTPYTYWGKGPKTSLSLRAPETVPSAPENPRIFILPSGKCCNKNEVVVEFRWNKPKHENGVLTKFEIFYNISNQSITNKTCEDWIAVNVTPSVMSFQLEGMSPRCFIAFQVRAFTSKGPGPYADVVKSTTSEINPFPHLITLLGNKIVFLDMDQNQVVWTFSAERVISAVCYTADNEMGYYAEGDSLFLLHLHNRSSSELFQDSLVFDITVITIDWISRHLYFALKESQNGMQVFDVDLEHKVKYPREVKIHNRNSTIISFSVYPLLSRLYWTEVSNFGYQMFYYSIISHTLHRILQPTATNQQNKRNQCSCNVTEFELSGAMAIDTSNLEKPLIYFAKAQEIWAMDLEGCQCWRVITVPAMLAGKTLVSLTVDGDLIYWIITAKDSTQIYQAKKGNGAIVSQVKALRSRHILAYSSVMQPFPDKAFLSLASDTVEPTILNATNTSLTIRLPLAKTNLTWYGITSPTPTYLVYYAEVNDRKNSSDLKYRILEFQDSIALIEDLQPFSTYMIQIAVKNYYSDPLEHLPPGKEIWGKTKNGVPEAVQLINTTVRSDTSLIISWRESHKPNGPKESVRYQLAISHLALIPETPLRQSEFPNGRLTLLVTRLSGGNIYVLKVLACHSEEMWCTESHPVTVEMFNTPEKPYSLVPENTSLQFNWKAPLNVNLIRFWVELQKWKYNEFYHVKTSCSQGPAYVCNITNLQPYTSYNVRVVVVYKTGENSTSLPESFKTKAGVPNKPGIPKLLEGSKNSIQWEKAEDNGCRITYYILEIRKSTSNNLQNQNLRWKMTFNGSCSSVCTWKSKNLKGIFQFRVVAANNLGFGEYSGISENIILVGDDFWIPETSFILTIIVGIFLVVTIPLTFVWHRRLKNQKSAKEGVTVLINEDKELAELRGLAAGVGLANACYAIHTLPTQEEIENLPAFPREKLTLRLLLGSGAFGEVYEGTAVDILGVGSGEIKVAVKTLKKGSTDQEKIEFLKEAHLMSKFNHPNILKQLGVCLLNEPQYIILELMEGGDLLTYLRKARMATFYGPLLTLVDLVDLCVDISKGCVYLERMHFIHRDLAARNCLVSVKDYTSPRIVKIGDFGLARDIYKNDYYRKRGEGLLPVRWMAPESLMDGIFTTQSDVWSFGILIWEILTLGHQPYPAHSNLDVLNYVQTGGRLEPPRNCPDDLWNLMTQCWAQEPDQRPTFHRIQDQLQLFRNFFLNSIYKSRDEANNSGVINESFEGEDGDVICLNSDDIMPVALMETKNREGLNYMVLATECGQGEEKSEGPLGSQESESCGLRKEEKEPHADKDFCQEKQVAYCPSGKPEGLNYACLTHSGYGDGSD

[20] = target: Inhibitor of nuclear factor kappa-B kinase subunit beta (Homo sapiens) (UniProt O14920); assay: Inhibition of IKK-beta assessed as enzyme activity at 1 uM relative to untreated control; set-up: scale not given: the % may be the effect or the level left
[21] = target: Wee1-like protein kinase (Homo sapiens) (UniProt P30291); assay: Inhibition of WEE1 assessed as enzyme activity at 1 uM relative to untreated control; set-up: scale not given: the % may be the effect or the level left
[22] = Volume of distribution at steady state in Sprague-Dawley rat at 2 mg/kg, iv and 5 mg/kg, po; type: ADME, organism-based; settings: in vivo, read-out: Vdss
[23] = Volume of distribution at steady state in CD1 mouse; type: ADME, organism-based; settings: in vivo, read-out: Vdss
[24] = target: Serine/threonine-protein kinase RIO1 (Homo sapiens) (UniProt Q9BRS2); assay: Inhibition of RIOK1 assessed as enzyme activity at 1 uM relative to untreated control; set-up: scale not given: the % may be the effect or the level left
[25] = target: Serine/threonine-protein kinase PLK4 (Homo sapiens) (UniProt O00444); assay: Inhibition of PLK4 assessed as enzyme activity at 1 uM relative to untreated control; set-up: scale not given: the % may be the effect or the level left
[26] = target: Serine/threonine-protein kinase D2 (Homo sapiens) (UniProt Q9BZL6); assay: Inhibition of PRKD2 assessed as enzyme activity at 1 uM relative to untreated control; set-up: scale not given: the % may be the effect or the level left
[27] = target: Tyrosine-protein kinase TXK (Homo sapiens) (UniProt P42681); assay: Inhibition of TXK assessed as enzyme activity at 1 uM relative to untreated control; set-up: scale not given: the % may be the effect or the level left
[28] = target: Mitogen-activated protein kinase kinase kinase 11 (Homo sapiens) (UniProt Q16584); assay: Inhibition of MLK3 assessed as enzyme activity at 1 uM relative to untreated control; set-up: scale not given: the % may be the effect or the level left
Mitogen-activated protein kinase kinase kinase 11 (Homo sapiens), sequence (Q16584 whole entry, looked up): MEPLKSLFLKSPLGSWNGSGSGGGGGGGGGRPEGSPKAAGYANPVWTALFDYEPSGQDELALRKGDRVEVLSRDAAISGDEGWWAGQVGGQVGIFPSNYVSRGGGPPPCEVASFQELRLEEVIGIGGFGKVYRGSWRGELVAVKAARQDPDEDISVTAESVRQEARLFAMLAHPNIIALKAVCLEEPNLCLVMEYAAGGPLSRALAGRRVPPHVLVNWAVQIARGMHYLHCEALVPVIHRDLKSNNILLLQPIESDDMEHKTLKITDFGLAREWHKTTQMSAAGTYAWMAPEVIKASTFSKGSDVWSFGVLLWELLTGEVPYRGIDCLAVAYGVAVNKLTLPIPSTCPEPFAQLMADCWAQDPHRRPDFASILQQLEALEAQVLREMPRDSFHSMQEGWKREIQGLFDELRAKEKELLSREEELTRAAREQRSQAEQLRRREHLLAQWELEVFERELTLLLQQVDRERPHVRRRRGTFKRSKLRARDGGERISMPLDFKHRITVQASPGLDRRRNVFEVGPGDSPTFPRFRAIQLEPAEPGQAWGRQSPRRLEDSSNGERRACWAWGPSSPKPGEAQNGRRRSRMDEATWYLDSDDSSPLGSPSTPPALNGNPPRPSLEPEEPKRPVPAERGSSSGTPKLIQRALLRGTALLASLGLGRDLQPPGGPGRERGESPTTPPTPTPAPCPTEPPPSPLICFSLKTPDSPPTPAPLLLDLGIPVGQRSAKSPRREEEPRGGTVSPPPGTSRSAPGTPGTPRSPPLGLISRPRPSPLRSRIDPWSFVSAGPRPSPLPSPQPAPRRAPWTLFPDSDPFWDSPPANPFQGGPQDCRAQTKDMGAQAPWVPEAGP

[29] = target: Insulin receptor (Homo sapiens) (UniProt P06213); assay: Inhibition of INSR assessed as enzyme activity at 1 uM relative to untreated control; set-up: scale not given: the % may be the effect or the level left
[30] = target: Ribosomal protein S6 kinase alpha-1 (Homo sapiens) (UniProt Q15418); assay: Inhibition of RPS6KA1 kinase domain 1 assessed as enzyme activity at 1 uM relative to untreated control; set-up: scale not given: the % may be the effect or the level left
[31] = target: Serine/threonine-protein kinase Nek7 (Homo sapiens) (UniProt Q8TDX7); assay: Inhibition of NEK7 assessed as enzyme activity at 1 uM relative to untreated control; set-up: scale not given: the % may be the effect or the level left
Serine/threonine-protein kinase Nek7 (Homo sapiens), sequence (Q8TDX7 whole entry, looked up, the tested form may be a part): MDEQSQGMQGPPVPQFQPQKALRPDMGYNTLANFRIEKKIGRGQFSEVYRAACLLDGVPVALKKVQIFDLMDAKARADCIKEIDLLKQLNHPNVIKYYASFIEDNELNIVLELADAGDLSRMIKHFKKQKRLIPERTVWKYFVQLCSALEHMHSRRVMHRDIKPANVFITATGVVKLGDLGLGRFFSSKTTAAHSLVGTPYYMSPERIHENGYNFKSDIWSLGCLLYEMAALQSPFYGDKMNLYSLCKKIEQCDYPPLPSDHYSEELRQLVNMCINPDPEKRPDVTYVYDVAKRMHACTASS

[32] = target: Tyrosine-protein kinase JAK2 (Homo sapiens) (UniProt O60674); assay: Inhibition of JAK2 kinase domain 2 assessed as enzyme activity at 1 uM relative to untreated control; set-up: scale not given: the % may be the effect or the level left
[33] = target: Non-receptor tyrosine-protein kinase TYK2 (Homo sapiens) (UniProt P29597); assay: Inhibition of TYK2 kinase domain 2 assessed as enzyme activity at 1 uM relative to untreated control; set-up: scale not given: the % may be the effect or the level left
Non-receptor tyrosine-protein kinase TYK2 (Homo sapiens), sequence (P29597 whole entry, the tested form may be a part): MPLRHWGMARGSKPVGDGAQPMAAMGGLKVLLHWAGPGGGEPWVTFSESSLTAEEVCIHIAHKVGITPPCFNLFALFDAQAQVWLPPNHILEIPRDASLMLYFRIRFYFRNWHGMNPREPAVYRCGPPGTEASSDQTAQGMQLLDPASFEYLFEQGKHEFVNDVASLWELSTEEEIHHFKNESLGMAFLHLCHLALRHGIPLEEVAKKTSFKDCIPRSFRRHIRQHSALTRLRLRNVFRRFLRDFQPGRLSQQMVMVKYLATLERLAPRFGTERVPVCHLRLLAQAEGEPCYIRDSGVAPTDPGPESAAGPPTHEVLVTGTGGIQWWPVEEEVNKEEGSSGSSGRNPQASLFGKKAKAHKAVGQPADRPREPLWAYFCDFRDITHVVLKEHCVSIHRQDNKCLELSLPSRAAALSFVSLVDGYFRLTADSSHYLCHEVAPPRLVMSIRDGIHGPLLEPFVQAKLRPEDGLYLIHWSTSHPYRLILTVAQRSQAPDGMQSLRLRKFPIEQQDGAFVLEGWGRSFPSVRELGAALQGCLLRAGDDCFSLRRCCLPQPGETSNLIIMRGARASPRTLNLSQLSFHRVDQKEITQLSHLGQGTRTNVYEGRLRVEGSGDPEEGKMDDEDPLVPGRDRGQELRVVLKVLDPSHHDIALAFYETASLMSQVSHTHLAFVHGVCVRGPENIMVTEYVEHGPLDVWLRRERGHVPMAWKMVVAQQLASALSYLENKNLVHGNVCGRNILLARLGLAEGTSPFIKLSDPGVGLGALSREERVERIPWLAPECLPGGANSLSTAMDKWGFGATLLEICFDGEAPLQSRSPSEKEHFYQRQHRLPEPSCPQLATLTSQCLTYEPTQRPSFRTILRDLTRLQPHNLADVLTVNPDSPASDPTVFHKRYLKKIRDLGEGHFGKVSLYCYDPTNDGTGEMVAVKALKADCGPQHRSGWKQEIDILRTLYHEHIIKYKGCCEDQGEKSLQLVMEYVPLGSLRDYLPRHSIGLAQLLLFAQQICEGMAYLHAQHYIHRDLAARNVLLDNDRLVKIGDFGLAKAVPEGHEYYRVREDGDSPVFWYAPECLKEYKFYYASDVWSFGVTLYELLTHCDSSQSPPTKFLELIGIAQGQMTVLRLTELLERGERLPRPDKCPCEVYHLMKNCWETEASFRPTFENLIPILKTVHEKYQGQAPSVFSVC

[34] = target: Dual specificity protein kinase CLK1 (Homo sapiens) (UniProt P49759); assay: Inhibition of CLK1 assessed as enzyme activity at 1 uM relative to untreated control; set-up: scale not given: the % may be the effect or the level left
[35] = target: Epidermal growth factor receptor (Homo sapiens) (UniProt P04626+P00533+Q15303+P21860); assay: Inhibition of EGFR L747-T751del,Sins mutant assessed as enzyme activity at 1 uM relative to untreated control; type: protein assay; set-up: scale not given: the % may be the effect or the level left
[36] = target: Platelet-derived growth factor receptor beta (Homo sapiens) (UniProt P09619); assay: Inhibition of PDGFRB assessed as enzyme activity at 1 uM relative to untreated control; set-up: scale not given: the % may be the effect or the level left
[37] = test system: Proto-oncogene tyrosine-protein kinase receptor Ret (Homo sapiens), P07949 [M918T]; assay: Inhibition of RET M918T mutant assessed as enzyme activity at 1 uM relative to untreated control; set-up: scale not given: the % may be the effect or the level left

Cc1ccc2c(Nc3ccc(Cl)cc3)nccc2c1Nc1ncccc1-c1ncnc2[nH]cnc12.Cl.Cl.Cl
Activity [1]: 96%
Activity [2]: 95%
Activity [3]: 0.1%
Activity [4]: 85%
Activity [5]: 100%
Activity [6]: 87%
Activity [7]: 100%
Activity [8]: 100%
Activity [9]: 95%
Activity [10]: 100%
IC50 [11]: 1000 nM
Activity [12]: 100%
Activity [13]: 6.1%
Activity [14]: 100%
Activity [15]: 78%
ED50 (A-375): 1.3 mg/kg
Activity [16]: 33%
Activity [17]: 87%
Activity [18]: 100%
Activity [19]: 72%
Activity [20]: 100%
Activity [21]: 92%
Vd [22]: 1.9 L/kg
Vd [23]: 1.1 L/kg
Activity [24]: 92%
Activity [25]: 90%
Activity [26]: 100%
Activity [27]: 100%
Activity [28]: 100%
Activity [29]: 86%
Activity [30]: 94%
Activity [31]: 88%
Activity [32]: 3.9%
Activity [33]: 28%
Activity [34]: 100%
Activity [35]: 98%
Activity [36]: 78%
Activity [37]: 100%

Source: ChEMBL document CHEMBL1155237, “Selective inhibitors of the mutant B-Raf pathway: discovery of a potent and orally bioavailable aminoisoquinoline” (J Med Chem, 2009)
